The source of these data is patent US9797002B2, “Methods and kits for genome-wide methylation of GpC sites and genome-wide determination of chromatin structure” (UNIVERSITY OF SOUTHERN CALIFORNIA, priority 2010, dated 2017).

This test relates to LD419. The test can be described thus: RT-PCR analysis of L1-MET reactivation after 5-Aza-CdR treatment. The class given is cell-based, human. The settings on record: LD419 fibroblast cell line, 1 or 3 μM 5-Aza-CdR for 24 hours (day 3 after treatment), β-actin control. From the text:
(A) The functional domains of MET include the signal peptide (SP), sema domain at the N-terminus, the PSI domain, IPT repeats, the transmembrane domain (TM), and the kinase domain at the C-terminus. The structure of truncated MET proteins 1 and 2 are shown, encoded by transcripts derived from placenta (GenBank accession no. BX334980) and a bladder carcinoma cell line (BF208095), respectively. (B) The two […] transcripts, truncated L1-MET-1 (T-MET-1) and truncated L1-MET-2 (T-MET-2), were cloned into a pMEV expression vector with 2 HA tags fused at the N-terminal. Hela cells were transfected with either the empty pMEV vector, pMEV T-MET-1, or pMEV T-MET-2 and protein was extracted after 48 hours. The expression of truncated MET-1 (90 kDa) and truncated MET-2 (60 kDa) was detected by western blot using an HA antibody. (C) Results of 5′RACE reveal the start site for L1-MET within the L1 element. The transcriptional start site of L1-MET was confirmed by 5′RACE in the T24 cell line which expressed L1-MET. The underlined sequence is located inside of the LINE-1. […] Found at: doi:10.1371/journal.pgen. 1000917.s002 (1.22 MB TIF)
The transcript from the L1-MET anti-sense promoter contains its own exons 1 and 2, referred to as L1-MET exon 1 and L1-MET exon 2 (FIG. 7A). […]
Quantitative RT-PCR. Expression was determined by quantitative RT-PCR as described previously.

As for `Nc1ncn([C@H]2C[C@H](O)[C@@H](CO)O2)c(=O)n1` [5-aza-deoxycytidine], the “expression (reactivation) of the L1-MET transcript” value is given as “lead to expression of L1-MET”. In addition, where the note is “listed as 5-Aza-CdR”, the “expression (reactivation) of the L1-MET transcript” value is recorded as “reactivation of L1-MET”.
